Source: patent US20110190365A1, “Insecticidal 4-phenyl-1H-pyrazoles” (Bayer Crop Science AG, priority 2008, published 2011)

Assay: log P by HPLC on a reversed-phase column (C18), EEC Directive 79/831 Annex V.A8
Assay type: physicochemical
Conditions: HCOOH
Description: The stated log P values were determined in accordance with EEC Directive 79/831 Annex V.A8 by HPLC (High Performance Liquid Chromatography) using a reversed-phase column (C18).

Row | SMILES | log P (HCOOH)
1 | Cc1cc(-n2nc(C(F)(F)F)c(-c3ccc(Br)cc3)c2N)ccc1C(=O)NCC(F)(F)C(F)F [I-A-Q2-303] | I-A-Q2-303: log P (HCOOH): 3.70
2 | Cc1cc(-n2nc(C(F)(F)F)c(Br)c2N)ccc1C(=O)NCc1ccccn1 [XI-A-093] | XI-A-093: log P (HCOOH): 1.98
3 | Cc1cc(-n2nc(C(F)(F)F)c(-c3cc(Cl)cc(Cl)c3)c2N)ccc1C(=O)NC1CCCCC1 [I-A-Q2-222] | I-A-Q2-222: log P (HCOOH): 4.76
4 | CCc1nn(-c2ccc(C(=O)NCC(F)(F)C(F)F)c(C)c2)c(N)c1-c1ccc(Cl)cc1 [I-A-Q2-339] | I-A-Q2-339: log P (HCOOH): 3.27
5 | CC(=O)Nc1c(-c2cc(Cl)cc(Cl)c2)c(C(F)(F)F)nn1-c1ccc(C(=O)NCc2ccccn2)c(C)c1 [I-A-Q2-197] | I-A-Q2-197: log P (HCOOH): 2.76
6 | Cc1cc(-n2nc(C(C)C)c(-c3ccc(Cl)cc3)c2N)ccc1C(=O)NCC(F)(F)C(F)F [I-A-Q2-338] | I-A-Q2-338: log P (HCOOH): 3.65
7 | CC(NC(=O)c1ccc(-n2nc(C(F)(F)F)c(-c3ccc(F)c(F)c3)c2N)cc1)C(F)(F)F (stereo not shown) [I-A-Q2-175] | I-A-Q2-175: log P (HCOOH): 3.47
8 | Cc1cc(-n2nc(C)c(-c3ccc(Cl)cc3)c2N)ccc1C(=O)NCc1ccccn1 [I-A-Q2-366] | I-A-Q2-366: log P (HCOOH): 1.91
9 | Nc1c(-c2cccc(Cl)c2)c(C(F)(F)F)nn1-c1ccc(C(=O)NC2CCCCC2)cc1 [I-A-Q2-093] | I-A-Q2-093: log P (HCOOH): 4.00
10 | Cc1cc(-n2nc(C(F)(F)Oc3cccc(Cl)c3)c(-c3cc(Cl)cc(C(F)(F)F)c3)c2N)ccc1C(=O)NCC(F)(F)C(F)F [I-A-Q2-297] | I-A-Q2-297: log P (HCOOH): 4.95
11 | COc1cnc(CNC(=O)c2ccc(-n3nc(C(F)(F)F)c(-c4cc(Cl)cc(Cl)c4)c3N)cc2C)cc1OC [I-A-Q2-037] | I-A-Q2-037: log P (HCOOH): 2.42
12 | Nc1c(-c2cc(Cl)cc(Cl)c2)c(C(F)(F)F)nn1-c1ccc(C(=O)NC2CCC2)cc1 [I-A-Q2-141] | I-A-Q2-141: log P (HCOOH): 4.21
13 | Cc1cc(-n2nc(C(F)(F)F)c(-c3cc(Cl)cc(Cl)c3)c2N)ccc1C(=O)NCC[S+](C)[O-] (stereo not shown) [I-A-Q2-273] | I-A-Q2-273: log P (HCOOH): 2.98
14 | Nc1c(-c2cc(Cl)cc(Cl)c2)c(C(F)(F)F)nn1-c1ccc(C(=O)NCc2ccc(Cl)nc2)cc1 [I-A-Q2-148] | I-A-Q2-148: log P (HCOOH): 4.12
15 | Cc1nc(CNC(=O)c2ccc(-n3nc(C(F)(F)F)c(-c4cc(Cl)cc(Cl)c4)c3N)cc2C)no1 [I-A-Q2-059] | I-A-Q2-059: log P (HCOOH): 3.63
16 | Cc1cc(-n2nc(C(F)(F)F)c(-c3cccc(Br)c3)c2N)ccc1C(=O)NCc1ccccn1 [I-A-Q2-357] | I-A-Q2-357: log P (HCOOH): 2.72
17 | COc1cc(-c2c(C(F)(F)F)nn(-c3ccc(C(=O)NCC(F)(F)C(F)F)c(C)c3)c2N)cc(Cl)c1OC [I-A-Q2-292] | I-A-Q2-292: log P (HCOOH): 3.53
18 | Cc1cc(-n2nc(C(F)(F)F)c(-c3cc(F)cc(Cl)c3)c2N)ccc1C(=O)NCC(F)(F)C(F)F [I-A-Q2-301] | I-A-Q2-301: log P (HCOOH): 3.75
19 | Cc1cc(-n2nc(C(F)(F)F)c(-c3cc(Cl)cc(Cl)c3)c2N)ccc1C(=O)NCc1ncccn1 [I-A-Q2-018] | I-A-Q2-018: log P (HCOOH): 3.56
20 | CC(NC(=O)c1ccc(-n2nc(C(F)(F)F)c(-c3cc(F)cc(Cl)c3)c2N)cc1)c1ccccn1 (stereo not shown) [I-A-Q2-088] | I-A-Q2-088: log P (HCOOH): 2.99
21 | CC(C)NC(=O)c1ccc(-n2nc(C(F)(F)F)c(-c3ccc(Cl)cc3)c2N)cc1 [I-A-Q2-161] | I-A-Q2-161: log P (HCOOH): 3.37
22 | CCCCCNC(=O)c1ccc(-n2nc(C(F)(F)F)c(-c3cc(Cl)cc(Cl)c3)c2N)cc1C [I-A-Q2-237] | I-A-Q2-237: log P (HCOOH): 4.76
23 | Cc1cc(-n2nc(C(F)(F)F)c(-c3cc(Cl)cc(Cl)c3)c2N)ccc1C(=O)NCCC(F)=C(F)F [I-A-Q2-061] | I-A-Q2-061: log P (HCOOH): 4.45

Row | SMILES | log P (HCOOH)
24 | COc1ccc(-c2c(C)nn(-c3ccc(C(=O)NCC(F)(F)C(F)F)c(C)c3)c2N)cc1 [I-A-Q2-324] | I-A-Q2-324: log P (HCOOH): 2.30
25 | Cc1cc(-n2nc(C(F)(F)F)c(-c3cccc(Br)c3)c2N)ccc1C(=O)NCC(F)(F)C(F)F [I-A-Q2-314] | I-A-Q2-314: log P (HCOOH): 3.65
26 | Cc1cc(-n2nc(C(F)F)c(-c3ccc(Cl)cc3)c2N)ccc1C(=O)NCC(F)(F)C(F)F [I-A-Q2-320] | I-A-Q2-320: log P (HCOOH): 3.23
27 | Cc1cc(-n2nc(C(F)(F)F)c(-c3cc(Cl)cc(Cl)c3)c2I)ccc1C(=O)NCc1ncccn1 [I-A-Q2-275] | I-A-Q2-275: log P (HCOOH): 4.47
28 | Cc1cc(-n2nc(C(F)(F)F)c(-c3ccc(Cl)c(Cl)c3)c2N)ccc1C(=O)NCc1ccccn1 [I-A-Q2-347] | I-A-Q2-347: log P (HCOOH): 3.11
29 | COC(CNC(=O)c1ccc(-n2nc(C(F)(F)F)c(-c3cc(Cl)cc(Cl)c3)c2N)cc1C)OC [I-A-Q2-224] | I-A-Q2-224: log P (HCOOH): 3.78
30 | CSCC(C)NC(=O)c1ccc(-n2nc(C(F)(F)F)c(-c3cc(Cl)cc(Cl)c3)c2N)cc1C (stereo not shown) [I-A-Q2-279] | I-A-Q2-279: log P (HCOOH): 4.43
31 | Cc1cc(-n2nc(C(F)(F)F)c(-c3cc(Cl)cc(Cl)c3)c2N)ccc1C(=O)NC(C)C1(Cl)CC1 (stereo not shown) [I-A-Q2-261] | I-A-Q2-261: log P (HCOOH): 4.76
32 | Cc1cc(-n2nc(C(F)(F)F)c(-c3cc(Cl)cc(Cl)c3)c2N)ccc1C(=O)NCc1cc(-c2ccccc2)ccn1 [I-A-Q2-206] | I-A-Q2-206: log P (HCOOH): 4.29
33 | Cc1cc(-n2nc(C(F)(F)F)c(-c3ccccc3Br)c2N)ccc1C(=O)NCC1CC1 [I-A-Q2-422] | I-A-Q2-422: log P (HCOOH): 3.41
34 | Cc1cc(-n2nc(C(F)(F)C(F)(F)F)c(-c3cc(C(F)(F)F)cc(C(F)(F)F)c3)c2N)ccc1C(=O)NCC(F)(F)C(F)F [I-A-Q2-343] | I-A-Q2-343: log P (HCOOH): 4.57
35 | CC(C)(CC(F)(F)F)NC(=O)c1ccc(-n2nc(C(F)(F)F)c(-c3cc(Cl)cc(Cl)c3)c2N)cc1 [I-A-Q2-069] | I-A-Q2-069: log P (HCOOH): 4.83
36 | CC(NC(=O)c1ccc(-n2nc(C(F)(F)F)c(-c3ccc(Cl)c(Cl)c3)c2N)cc1)C(F)(F)F (stereo not shown) [I-A-Q2-155] | I-A-Q2-155: log P (HCOOH): 4.11
37 | Cc1cc(C)nc(CNC(=O)c2ccc(-n3nc(C(F)(F)F)c(-c4cc(Cl)cc(Cl)c4)c3N)cc2C)n1 [I-A-Q2-245] | I-A-Q2-245: log P (HCOOH): 3.89
38 | Cc1cc(-n2nc(C)c(-c3cccc(Cl)c3)c2N)ccc1C(=O)NCC(F)(F)C(F)F [I-A-Q2-331] | I-A-Q2-331: log P (HCOOH): 2.85
39 | Cc1cc(-n2nc(C(F)(F)F)c(-c3cc(C(F)(F)F)cc(C(F)(F)F)c3)c2N)ccc1C(=O)NCC(F)(F)C(F)F [I-A-Q2-318] | I-A-Q2-318: log P (HCOOH): 4.23
40 | COc1ccc(CNC(=O)c2ccc(-n3nc(C(F)(F)F)c(-c4cc(Cl)cc(Cl)c4)c3N)cc2C)nc1 [I-A-Q2-032] | I-A-Q2-032: log P (HCOOH): 3.63
41 | CCCC(NC(=O)c1ccc(-n2nc(C(F)(F)F)c(-c3cc(Cl)cc(Cl)c3)c2N)cc1C)C(F)(F)F (stereo not shown) [I-A-Q2-201] | I-A-Q2-201: log P (HCOOH): 5.11
42 | Cc1cc(-n2nc(C(F)(F)F)c(-c3cc(Cl)cc(Cl)c3)c2N)ccc1C(=O)NCc1ccc(C(F)(F)F)nc1 [I-A-Q2-060] | I-A-Q2-060: log P (HCOOH): 4.34
43 | Cc1cc(-n2nc(C(F)(F)F)c(-c3cc(Cl)cc(Cl)c3)c2[S+](C)[O-])ccc1C(=O)NCC(F)(F)C(F)F (single isomer, unassigned) [I-A-Q2-284] | I-A-Q2-284: log P (HCOOH): 4.32
44 | Nc1c(-c2cc(Cl)cc(Cl)c2)c(C(F)(F)F)nn1-c1ccc(C(=O)NCc2cccnc2)cn1 [I-A-Q2-107] | I-A-Q2-107: log P (HCOOH): 2.95
45 | Cc1cc(-n2nc(C(F)(F)F)cc2N)ccc1C(=O)NCC(F)(F)C(F)F [XI-A-088] | XI-A-088: log P (HCOOH): 2.63

Same assay, conditions: HCOOH; Table 4, compounds of formula I-A-Q4

Row | SMILES | log P (HCOOH)
46 | Nc1c(-c2ccc(Cl)cc2Cl)c(C(F)(F)F)nn1-c1ccc(C(=O)O)cc1 [I-A-Q4-095] | I-A-Q4-095: log P (HCOOH): 3.44
47 | Nc1c(-c2ccc(F)c(F)c2)c(C(F)(F)F)nn1-c1ccc(C(=O)O)cc1 [I-A-Q4-092] | I-A-Q4-092: log P (HCOOH): 3.06
48 | Cc1nn(-c2ccc(Cl)cn2)c(N)c1-c1ccc(Cl)cc1 [I-A-Q4-039] | I-A-Q4-039: log P (HCOOH): 4.40
49 | Nc1c(-c2ccc(Cl)cc2)c(-c2ccccc2)nn1-c1ccc(Cl)cn1 [I-A-Q4-028] | I-A-Q4-028: log P (HCOOH): 5.64
50 | Nc1c(-c2ccc(Br)cc2)c(C(F)(F)F)nn1-c1ccc(C(=O)O)cc1 [I-A-Q4-098] | I-A-Q4-098: log P (HCOOH): 3.35
51 | Cc1nn(-c2ccc(Cl)cn2)c(N)c1-c1cc(Cl)ccc1Cl [I-A-Q4-030] | I-A-Q4-030 :log P (HCOOH): 4.57
52 | CN(C)C=Nc1c(-c2ccc(Cl)cc2)c(C(F)(F)F)nn1-c1ncc(Cl)cn1 [I-A-Q4-015] | I-A-Q4-015: log P (HCOOH): 3.47
53 | Cc1nn(-c2ccc(Cl)cn2)c(N)c1-c1c(Cl)cccc1Cl [I-A-Q4-029] | I-A-Q4-029: log P (HCOOH): 4.05
54 | Nc1c(-c2cccc(Cl)c2)c(C(F)(F)F)nn1-c1ccc(C(=O)O)cc1 [I-A-Q4-096] | I-A-Q4-096: log P (HCOOH): 3.20
55 | Cc1nn(-c2ccc(Cl)cn2)c(N)c1-c1ccccc1Cl [I-A-Q4-032] | I-A-Q4-032: log P (HCOOH): 3.89

Same assay, conditions: HPLC, reversed-phase C18, mobile phase with formic acid

Row | SMILES | log P (HCOOH)
56 | Nc1c(-c2cc(Cl)cc(Cl)c2)c(C(F)(F)F)nn1-c1ccc(-n2cncn2)c(Cl)c1 [I-A-Q1-069] | I-A-Q1-069: log P (HCOOH): 4.14
57 | N#Cc1cc(-n2nc(C(F)(F)F)c(-c3c(F)cc(F)cc3F)c2N)ccc1-n1cncn1 [I-A-Q1-034] | I-A-Q1-034: log P (HCOOH): 3.10
58 | N#Cc1cc(-n2nc(C(F)F)c(-c3ccc(F)cc3F)c2N)ccc1-n1cncn1 [I-A-Q1-048] | I-A-Q1-048: log P (HCOOH): 2.39
59 | Cc1nn(-c2ccc(-n3cncn3)c(C#N)c2)c(N)c1-c1ccc(F)cc1F [I-A-Q1-057] | I-A-Q1-057: log P (HCOOH): 2.35
60 | CCc1nn(-c2ccc(-n3cncn3)c(C#N)c2)c(N)c1-c1ccc(Cl)cc1 [I-A-Q1-062] | I-A-Q1-062: log P (HCOOH): 3.09
61 | N#Cc1cc(-n2nc(C(F)F)c(-c3ccc(Cl)cc3)c2N)ccc1-n1cncn1 [I-A-Q1-030] | I-A-Q1-030: log P (HCOOH): 2.92
